# Test results as given in patent US20230022157A1 (Achillion Pharmaceuticals, Inc., priority 2018, published 2023).
# Biological target: T1, Human Factor D (Homo sapiens, UniProt P00746)
# T1 construct: purified from human serum; purchased Complement Technology, Inc; host or cells: human serum (natural protein, not recombinant)
# Assay: Human Factor D Assay
# Type: biochemical
# Conditions: Human Factor D 80 nM, substrate Z-L-Lys-SBzl, assay of Example 3; read-out: IC50 (Stars)
# Description: Human Factor D (purified from human serum, Complement Technology, Inc.) at 80 nM final concentration is incubated with test compound at various concentrations for 5 min at room temperature in 50 mM Tris, 1M NaCl, pH 7.5. A synthetic substrate Z-L-Lys-SBzl and DTNB (Ellman's reagent) are added to final concentrations of 100 μM each. […] IC50 values are calculated by nonlinear regression of complement Factor D reaction rates as a function of test compound concentration.
# T1 sequence (P00746 26-253): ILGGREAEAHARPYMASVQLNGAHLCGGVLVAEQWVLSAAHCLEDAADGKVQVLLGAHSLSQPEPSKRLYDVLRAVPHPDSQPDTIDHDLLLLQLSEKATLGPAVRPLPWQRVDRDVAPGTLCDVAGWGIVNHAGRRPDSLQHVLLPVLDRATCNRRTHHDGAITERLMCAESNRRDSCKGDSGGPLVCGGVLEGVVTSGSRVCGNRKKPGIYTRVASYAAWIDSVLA
row,IC50,SMILES
1,< 1000 nM,"CC(=O)c1nn(CC(=O)N2[C@H](C(=O)Nc3nc(Br)ccc3C)C[C@@]3(CO)C[C@@H]23)c2ccc(-c3cnc(CO)nc3)cc12 [Compound 32, (1R,3S,5S)-2-(2-(3-Acetyl-5-(2-(hydroxymethyl)pyrimidin-5-yl)-1H-indazol-1-yl)acetyl)-N-(6-bromo-3-methylpyridin-2-yl)-5-(hydroxymethyl)-2-azabicyclo[3.1.0]hexane-3-carboxamide]"
2,< 1000 nM,"CC(=O)c1nn(CC(=O)N2[C@H](C(=O)Nc3nc(Br)ccc3C)C[C@@]3(C)C[C@@H]23)c2c(C)cc(-c3cnc(CO)nc3)cc12 [Compound 27, (1R,3S,5R)-2-(2-(3-Acetyl-5-(2-(hydroxymethyl)pyrimidin-5-yl)-7-methyl-1H-indazol-1-yl)acetyl)-N-(6-bromo-3-methylpyridin-2-yl)-5-methyl-2-azabicyclo[3.1.0]hexane-3-carboxamide]"
3,< 1000 nM,"CC(=O)c1nn(CC(=O)N2[C@H](C(=O)Nc3nc(C(F)(F)F)ccc3C)C[C@@]3(C)C[C@@H]23)c2ccc(-c3cncc(S(N)(=O)=O)c3)cc12 [Compound 22, (1R,3S,5R)-2-(2-(3-Acetyl-5-(5-sulfamoylpyridin-3-yl)-1H-indazol-1-yl)acetyl)-5-methyl-N-(3-methyl-6-(trifluoromethyl)pyridin-2-yl)-2-azabicyclo[3.1.0]hexane-3-carboxamide]"

row,SMILES,IC50
1,CC(=O)c1nn(CC(=O)N2[C@H](C(=O)Nc3nc(Br)ccc3C)C[C@@]3(CO)C[C@@H]23)c2c(C)cc(-c3cnc(CO)nc3)cc12 [Compound 31],< 1000 nM

# Same assay, conditions: Human Factor D 80 nM, substrate Z-L-Lys-SBzl; Table 2; read-out: IC50 (Stars)
row,IC50,SMILES
1,< 1000 nM,"CC(=O)c1nn(CC(=O)N2[C@H](C(=O)Nc3nc(Br)ccc3C)C[C@@]3(C)C[C@@H]23)c2c(C)cc(-c3cnc(C(C)(C)O)nc3)cc12 [Compound 41, (1R,3S,5R)-2-(2-(3-acetyl-5-(2-(2-hydroxypropan-2-yl)pyrimidin-5-yl)-7-methyl-1H-indazol-1-yl)acetyl)-N-(6-bromo-3-methylpyridin-2-yl)-5-methyl-2-azabicyclo[3.1.0]hexane-3-carboxamide]"
2,< 1000 nM,"COc1ncc(-c2cc3c(C(C)=O)cn(CC(=O)N4[C@H](C(=O)Nc5nc(C(F)(F)F)ccc5C)C[C@@]5(C)C[C@@H]45)c3c(C)n2)cn1 [Compound 201, (1R,3S,5R)-2-(2-(3-acetyl-5-(2-methoxypyrimidin-5-yl)-7-methyl-1H-pyrrolo[2,3-c]pyridin-1-yl)acetyl)-5-methyl-N-(3-methyl-6-(trifluoromethyl)pyridin-2-yl)-2-azabicyclo[3.1.0]hexane-3-carboxamide]"
3,< 1000 nM,"CC(=O)c1nn(CC(=O)N2[C@H](C(=O)Nc3nc(Br)c(F)cc3C)C[C@@]3(C)C[C@@H]23)c2c(C)cc(-c3cnc(CO)cn3)cc12 [Compound 131, (1R,3S,5R)-2-(2-(3-acetyl-5-(5-(hydroxymethyl)pyrazin-2-yl)-7-methyl-1H-indazol-1-yl)acetyl)-N-(6-bromo-5-fluoro-3-methylpyridin-2-yl)-5-methyl-2-azabicyclo[3.1.0]hexane-3-carboxamide]"
4,< 1000 nM,"CC(=O)c1nn(CC(=O)N2[C@H]3CC[C@H](C3)[C@H]2C(=O)Nc2nc(Br)ccc2C)c2c(C)cc(-c3cnc(CO)nc3)cc12 [Compound 100, (1S,3S,4R)-2-(2-(3-acetyl-5-(2-(hydroxymethyl)pyrimidin-5-yl)-7-methyl-1H-indazol-1-yl)acetyl)-N-(6-bromo-3-methylpyridin-2-yl)-2-azabicyclo[2.2.1]heptane-3-carboxamide]"
5,< 1000 nM,"CC(=O)c1nn(CC(=O)N2[C@H](C(=O)Nc3nc(Br)ccc3Cl)C[C@@]3(C)C[C@@H]23)c2c(C)cc(-c3cnc(CO)nc3)cc12 [Compound 80, (1R,3S,5R)-2-(2-(3-acetyl-5-(2-(hydroxymethyl)pyrimidin-5-yl)-7-methyl-1H-indazol-1-yl)acetyl)-N-(6-bromo-3-chloropyridin-2-yl)-5-methyl-2-azabicyclo[3.1.0]hexane-3-carboxamide]"
6,< 1000 nM,"CC(=O)c1nn(CC(=O)N2[C@H](C(=O)Nc3cc(F)cc(Br)n3)C[C@@]3(C)C[C@@H]23)c2c(C)cc(-c3cnc(C(C)O)nc3)cc12 (stereo partly drawn) [Compound 124, (1R,3S,5R)-2-(2-(3-acetyl-5-(2-(1-hydroxyethyl)pyrimidin-5-yl)-7-methyl-1H-indazol-1-yl)acetyl)-N-(6-bromo-4-fluoropyridin-2-yl)-5-methyl-2-azabicyclo[3.1.0]hexane-3-carboxamide]"
7,< 1000 nM,"CC(=O)c1cn(CC(=O)N2[C@H](C(=O)Nc3nc(C(F)(F)F)ccc3C)C[C@@]3(C)C[C@@H]23)c2c(C)cc(-c3cnc4cc(F)nn4c3)cc12 [Compound 225, (1R,3S,5R)-2-(2-(3-acetyl-5-(2-fluoropyrazolo[1,5-a]pyrimidin-6-yl)-7-methyl-1H-indol-1-yl)acetyl)-5-methyl-N-(3-methyl-6-(trifluoromethyl)pyridin-2-yl)-2-azabicyclo[3.1.0]hexane-3-carboxamide]"
8,1000 to 10000 nM,"CC(=O)c1nn(CC(=S)N2C[C@H](F)C[C@H]2C(=O)Nc2cccc(Br)n2)c2ccc(-c3cnc(C)nc3)cc12 [Compound 110, 1-{2-[3-Acetyl-5-(2-methyl-pyrimidin-5-yl)-indazol-1-yl]-thioacetyl}-4-fluoro-pyrrolidine-2-carboxylic acid (6-bromo-pyridin-2-yl)-amide]"
9,< 1000 nM,"CC(=O)c1cn(CC(=O)N2[C@H](C(=O)Nc3nc(OC(F)(F)F)ccc3C)C[C@@]3(C)C[C@@H]23)c2c(C)cc(-c3cnc4cc(C)nn4c3)cc12 [Compound 206, (1R,3S,5R)-2-(2-(3-acetyl-7-methyl-5-(2-methylpyrazolo[1,5-a]pyrimidin-6-yl)-1H-indol-1-yl)acetyl)-5-methyl-N-(3-methyl-6-(trifluoromethoxy)pyridin-2-yl)-2-azabicyclo[3.1.0]hexane-3-carboxamide]"
10,< 1000 nM,"CC(=O)c1nn(CC(=O)N2C[C@H]3C[C@H]3[C@H]2C(=O)Nc2nc(Br)ccc2C)c2c(C)cc(-c3cnc(CO)nc3)cc12 [Compound 61, (1R,2S,5S)-3-(2-(3-acetyl-5-(2-(hydroxymethyl)pyrimidin-5-yl)-7-methyl-11H-indazol-1-yl)acetyl)-N-(6-bromo-3-methylpyridin-2-yl)-3-azabicyclo[3.1.0]hexane-2-carboxamide]"
11,< 1000 nM,"CC(=O)c1nn(CC(=O)N2[C@H](C(=O)N[C@H](CO)Cc3ccccc3)C[C@@]3(C)C[C@@H]23)c2c(C)cc(-c3cnc(C)nc3)cc12 [Compound 146, (1R,3S,5R)-2-{2-[3-acetyl-7-methyl-5-(2-methylpyrimidin-5-yl)indazol-1-yl]acetyl}-N-[(2S)-1-hydroxy-3-phenylpropan-2-yl]-5-methyl-2-azabicyclo[3.1.0]hexane-3-carboxamide]"
12,< 1000 nM,"CC(=O)c1nn(CC(=O)N2[C@H](C(=O)Nc3nc(Br)ccc3C)C[C@@]3(C)C[C@@H]23)c2c(C)cc(-c3cnc(C(C)O)cn3)cc12 (stereo partly drawn) [Compound 176, (1R,3S,5R)-2-(2-(3-acetyl-5-(5-(1-hydroxyethyl)pyrazin-2-yl)-7-methyl-1H-indazol-1-yl)acetyl)-N-(6-bromo-3-methylpyridin-2-yl)-5-methyl-2-azabicyclo[3.1.0]hexane-3-carboxamide]"
13,< 1000 nM,"CC(=O)c1cn(CC(=O)N2[C@H](C(=O)Nc3nc(C(F)(F)F)ccc3C)C[C@@]3(C)C[C@@H]23)c2c(CF)cc(-c3cnc(C)nc3)cc12 [Compound 239, (1R,3S,5R)-2-(2-(3-acetyl-7-(fluoromethyl)-5-(2-methylpyrimidin-5-yl)-1H-indol-1-yl)acetyl)-5-methyl-N-(3-methyl-6-(trifluoromethyl)pyridin-2-yl)-2-azabicyclo[3.1.0]hexane-3-carboxamide]"
14,< 1000 nM,"CC(=O)c1nn(CC(=O)N2[C@H](C(=O)Nc3nc(C(F)(F)F)ccc3C)C[C@@]3(C)C[C@@H]23)c2c(CF)cc(-c3cnc(C)nc3)cc12 [Compound 237, (1R,3S,5R)-2-(2-(3-acetyl-7-(fluoromethyl)-5-(2-methylpyrimidin-5-yl)-1H-indazol-1-yl)acetyl)-5-methyl-N-(3-methyl-6-(trifluoromethyl)pyridin-2-yl)-2-azabicyclo[3.1.0]hexane-3-carboxamide]"
15,< 1000 nM,"CC(=O)c1nn(CC(=O)N2[C@H](C(=O)NC(C)Cc3cnccn3)C[C@@]3(C)C[C@@H]23)c2c(C)cc(-c3cnc(C)nc3)cc12 (stereo partly drawn) [Compound 188, (1R,3S,5R)-2-{2-[3-acetyl-7-methyl-5-(2-methylpyrimidin-5-yl)indazol-1-yl]acetyl}-5-methyl-N-[1-(pyrazin-2-yl)propan-2-yl]-2-azabicyclo[3.1.0]hexane-3-carboxamide]"
16,< 1000 nM,"Cc1cc(F)c(Br)nc1NC(=O)[C@@H]1[C@@H]2C[C@@H]2CN1C(=O)Cn1nc(C(N)=O)c2cc(-c3cnc(CO)nc3)nc(C)c21 [Compound 168, 1-(2-((1R,2S,5S)-2-((6-bromo-5-fluoro-3-methylpyridin-2-yl)carbamoyl)-3-azabicyclo[3.1.0]hexan-3-yl)-2-oxoethyl)-5-(2-(hydroxymethyl)pyrimidin-5-yl)-7-methyl-1H-pyrazolo[3,4-c]pyridine-3-carboxamide]"

row,SMILES,IC50
1,"CC(=O)c1nn(CC(=O)N2[C@H](C(=O)Nc3nc(Br)c(F)cc3C)C[C@@]3(C)C[C@@H]23)c2c(C)cc(-c3cnc(C(C)O)cn3)cc12 (stereo partly drawn) [Compound 204, (1R,3S,5R)-2-(2-(3-acetyl-5-(5-(1-hydroxyethyl)pyrazin-2-yl)-7-methyl-1H-indazol-1-yl)acetyl)-N-(6-bromo-5-fluoro-3-methylpyridin-2-yl)-5-methyl-2-azabicyclo[3.1.0]hexane-3-carboxamide]",< 1000 nM
